Test results from patent US20230295200A1 (REGENTS OF THE UNIVERSITY OF MICHIGAN, priority 2022, published 2023).

What was measured:
STAT5A = target: T1, STAT5A (Homo sapiens, UniProt P42229); test: Fluorescence polarization (FP) binding assay, STAT5A; details: FP competition, 5 nM fluorescein-labeled tracer, 200 nM protein, PBS pH7.4
T1 sequence (P42229 1-794): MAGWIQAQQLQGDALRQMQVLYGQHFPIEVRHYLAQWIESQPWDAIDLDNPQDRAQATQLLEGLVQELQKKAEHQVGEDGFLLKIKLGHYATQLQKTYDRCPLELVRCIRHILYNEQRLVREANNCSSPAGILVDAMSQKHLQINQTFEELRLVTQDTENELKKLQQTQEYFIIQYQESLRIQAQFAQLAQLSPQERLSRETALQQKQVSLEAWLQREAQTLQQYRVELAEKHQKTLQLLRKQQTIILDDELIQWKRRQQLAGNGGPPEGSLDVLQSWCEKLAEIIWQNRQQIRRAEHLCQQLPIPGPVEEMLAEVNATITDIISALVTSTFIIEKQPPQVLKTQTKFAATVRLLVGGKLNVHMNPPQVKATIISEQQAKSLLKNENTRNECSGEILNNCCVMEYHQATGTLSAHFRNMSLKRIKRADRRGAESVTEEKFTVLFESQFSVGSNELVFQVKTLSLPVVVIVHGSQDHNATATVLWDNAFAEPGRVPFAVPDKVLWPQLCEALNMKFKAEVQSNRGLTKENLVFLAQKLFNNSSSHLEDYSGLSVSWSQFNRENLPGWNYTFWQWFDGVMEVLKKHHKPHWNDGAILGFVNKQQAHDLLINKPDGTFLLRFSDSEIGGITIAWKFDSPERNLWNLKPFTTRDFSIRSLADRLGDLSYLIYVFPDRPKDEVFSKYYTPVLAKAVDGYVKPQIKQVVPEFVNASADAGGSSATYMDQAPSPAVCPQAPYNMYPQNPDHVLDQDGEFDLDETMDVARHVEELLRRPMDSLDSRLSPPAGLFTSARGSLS
Procedure, shortened: (§1)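 Fluorescence polarization is read after STAT5 or STAT6 protein (200 nM) and a fluorescein-labeled tracer (5 nM) equilibrate for 1 h at room temperature in DTT-containing PBS pH 7.4 with BGG and Tween-20. Inhibition constants are obtained by nonlinear curve fitting.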

STAT6 protein = target: T2, STAT6 protein (Homo sapiens, UniProt P42226); test: Fluorescence polarization (FP) binding assay, STAT6; details: FP competition, 5 nM fluorescein-labeled tracer, 200 nM protein, PBS pH7.4; read-out: Binding STAT6
T2 sequence (P42226 1-847): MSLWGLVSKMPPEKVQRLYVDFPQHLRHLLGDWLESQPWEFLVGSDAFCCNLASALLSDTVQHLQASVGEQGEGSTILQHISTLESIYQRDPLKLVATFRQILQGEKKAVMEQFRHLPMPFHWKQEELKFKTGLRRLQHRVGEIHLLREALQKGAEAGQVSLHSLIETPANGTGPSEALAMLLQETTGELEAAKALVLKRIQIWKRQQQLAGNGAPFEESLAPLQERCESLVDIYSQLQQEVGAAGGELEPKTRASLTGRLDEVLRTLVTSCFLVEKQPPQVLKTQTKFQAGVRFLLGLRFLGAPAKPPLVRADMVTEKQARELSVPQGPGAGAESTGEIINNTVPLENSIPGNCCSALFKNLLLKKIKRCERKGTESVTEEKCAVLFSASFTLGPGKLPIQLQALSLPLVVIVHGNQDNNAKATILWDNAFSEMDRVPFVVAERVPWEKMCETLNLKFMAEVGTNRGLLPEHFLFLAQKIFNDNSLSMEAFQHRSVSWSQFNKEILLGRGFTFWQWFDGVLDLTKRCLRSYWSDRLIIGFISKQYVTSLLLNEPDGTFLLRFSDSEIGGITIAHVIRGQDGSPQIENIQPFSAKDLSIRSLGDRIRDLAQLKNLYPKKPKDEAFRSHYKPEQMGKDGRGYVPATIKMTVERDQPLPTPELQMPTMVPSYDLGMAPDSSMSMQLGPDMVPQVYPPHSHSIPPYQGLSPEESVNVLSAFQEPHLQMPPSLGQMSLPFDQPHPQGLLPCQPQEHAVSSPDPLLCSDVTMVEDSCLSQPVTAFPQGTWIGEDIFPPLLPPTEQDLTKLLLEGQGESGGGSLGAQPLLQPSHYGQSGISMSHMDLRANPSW
Procedure, shortened: as §1

Row | Structure (SMILES) | Ki (STAT5A) [nM] | Ki (STAT6 protein) [nM]
1 | CC(C)(C)[C@H](NC(=O)c1cc2cc(C(F)(F)P(=O)(O)O)ccc2s1)C(=O)N1CCC[C@H]1C(=O)N1CCOC(Cc2ccccc2)C1 (stereo partly drawn) [Compound 133, ((2-(((2S)-1-((2S)-2-(2-benzylmorpholine-4-carbonyl)pyrrolidin-1-yl)-3,3-dimethyl-1-oxobutan-2-yl)carbamoyl)benzo[b]thiophen-5-yl)difluoromethyl)phosphonic acid] | > 10000 | 1000 to 10000
2 | CC(C)(C)[C@H](NC(=O)c1cc2cc(C(F)(F)P(=O)(O)O)ccc2s1)C(=O)N1CCC[C@H]1C(=O)N1CCOC(C2CCCCC2)C1 (stereo partly drawn) [Compound 134, ((2-(((2S)-1-((2S)-2-(2-cyclohexylmorpholine-4-carbonyl)pyrrolidin-1-yl)-3,3-dimethyl-1-oxobutan-2-yl)carbamoyl)benzo[b]thiophen-5-yl)difluoromethyl)phosphonic acid] | > 10000 | 1000 to 10000
3 | CC(C)(C)[C@H](NC(=O)c1cc2cc(C(F)(F)P(=O)(O)O)ccc2s1)C(=O)N1CCC[C@H]1C(=O)N1CCC(O)C(c2ccccc2)C1 (stereo partly drawn) [Compound 137, (difluoro(2-(((2S)-1-((2S)-2-(4-hydroxy-3-phenylpiperidine-1-carbonyl)pyrrolidin-1-yl)-3,3-dimethyl-1-oxobutan-2-yl)carbamoyl)benzo[b]thiophen-5-yl)methyl)phosphonic acid] | > 10000 | 1000 to 10000
4 | CC(C)(C)[C@H](NC(=O)c1cc2cc(C(F)(F)P(=O)(O)O)ccc2s1)C(=O)N1CCC[C@H]1C(=O)N1CCOC(c2ccccn2)C1 (stereo partly drawn) [Compound 140, ((2-(((2S)-3,3-dimethyl-1-oxo-1-((2S)-2-(2-(pyridin-2-yl)morpholine-4-carbonyl)pyrrolidin-1-yl)butan-2-yl)carbamoyl)benzo[b]thiophen-5-yl)difluoromethyl)phosphonic acid] | > 10000 | 100 to 1000
5 | CC(C)(C)[C@H](NC(=O)c1cc2cc(C(F)(F)P(=O)(O)O)ccc2s1)C(=O)N1Cc2ccccc2C1C(=O)N1CCO[C@@H](c2ccccc2)C1 (stereo partly drawn) [Compound 142, ((2-(((2S)-3,3-dimethyl-1-oxo-1-(1-((S)-2-phenylmorpholine-4-carbonyl)isoindolin-2-yl)butan-2-yl)carbamoyl)benzo[b]thiophen-5-yl)difluoromethyl)phosphonic acid] | > 10000 | 1000 to 10000
6 | CC(C)(C)[C@H](NC(=O)c1ccc2cc(C(F)(F)P(=O)(O)O)ccc2c1)C(=O)N1CCC[C@H]1C(=O)N1CCO[C@H](c2ccccc2)C1 [Compound 145, ((6-(((S)-3,3-dimethyl-1-oxo-1-((S)-2-((R)-2-phenylmorpholine-4-carbonyl)pyrrolidin-1-yl)butan-2-yl)carbamoyl)naphthalen-2-yl)difluoromethyl)phosphonic acid] | > 10000 | 100 to 1000
7 | C#CC[C@H](NC(=O)c1cc2cc(C(F)(F)P(=O)(O)O)ccc2s1)C(=O)N1CCC[C@H]1C(=O)N1CCO[C@H](c2ccccc2)C1 [Compound 147, (difluoro(2-(((S)-1-oxo-1-((S)-2-((R)-2-phenylmorpholine-4-carbonyl)pyrrolidin-1-yl)pent-4-yn-2-yl)carbamoyl)benzo[b]thiophen-5-yl)methyl)phosphonic acid] | > 10000 | 100 to 1000
8 | O=C(N[C@H](C(=O)N1CCC[C@H]1C(=O)N1CCO[C@H](c2ccccc2)C1)C1CC1)c1cc2cc(C(F)(F)P(=O)(O)O)ccc2s1 [Compound 148, ((2-(((S)-1-cyclopropyl-2-oxo-2-((S)-2-((R)-2-phenylmorpholine-4-carbonyl)pyrrolidin-1-yl)ethyl)carbamoyl)benzo[b]thiophen-5-yl)difluoromethyl)phosphonic acid] | 1000 to 10000 | 100 to 1000
9 | CC(C)(O)[C@H](NC(=O)c1cc2cc(C(F)(F)P(=O)(O)O)ccc2s1)C(=O)N1CCC[C@H]1C(=O)N1CCO[C@H](c2ccccc2)C1 [Compound 149, (difluoro(2-(((S)-3-hydroxy-3-methyl-1-oxo-1-((S)-2-((R)-2-phenylmorpholine-4-carbonyl)pyrrolidin-1-yl)butan-2-yl)carbamoyl)benzo[b]thiophen-5-yl)methyl)phosphonic acid] | > 10000 | 100 to 1000
10 | CCC(CC)[C@H](NC(=O)c1cc2cc(C(F)(F)P(=O)(O)O)ccc2s1)C(=O)N1CCC[C@H]1C(=O)N1CCO[C@@H](c2ccccc2)C1 [Compound 150, ((2-(((S)-3-ethyl-1-oxo-1-((S)-2-((S)-2-phenylmorpholine-4-carbonyl)pyrrolidin-1-yl)pentan-2-yl)carbamoyl)benzo[b]thiophen-5-yl)difluoromethyl)phosphonic acid] | > 10000 | 1000 to 10000
11 | CC(C)(C)[C@H](NC(=O)c1ccc2cc(C(F)(F)P(=O)(O)O)ccc2c1)C(=O)N1CCC[C@H]1C(=O)N1CCO[C@@H](c2ccccc2)C1 [Compound 151, ((6-(((S)-3,3-dimethyl-1-oxo-1-((S)-2-((S)-2-phenylmorpholine-4-carbonyl)pyrrolidin-1-yl)butan-2-yl)carbamoyl)naphthalen-2-yl)difluoromethyl)phosphonic acid] | > 10000 | 1000 to 10000

Now from value to compound:

Row | Ki (STAT5A) [nM] | Ki (STAT6 protein) [nM] | Structure (SMILES)
12 | 1000 to 10000 | 100 to 1000 | CC(C)(C)[C@H](NC(=O)c1cc2cc(C(F)(F)P(=O)(O)O)ccc2s1)C(=O)N1CCC[C@H]1C(=O)N1CCS(=O)(=O)[C@H](c2ccccc2)C1 [Compound 135, ((2-(((S)-1-((S)-2-((R)-1,1-dioxido-2-phenylthiomorpholine-4-carbonyl)pyrrolidin-1-yl)-3,3-dimethyl-1-oxobutan-2-yl)carbamoyl)benzo[b]thiophen-5-yl)difluoromethyl)phosphonic acid]
13 | 1000 to 10000 | 100 to 1000 | CC(C)(C)[C@H](NC(=O)c1cc2cc(C(F)(F)P(=O)(O)O)ccc2s1)C(=O)N1CCC[C@H]1C(=O)N1CCS(=O)(=O)[C@@H](c2ccccc2)C1 [Compound 136, ((2-(((S)-1-((S)-2-((S)-1,1-dioxido-2-phenylthiomorpholine-4-carbonyl)pyrrolidin-1-yl)-3,3-dimethyl-1-oxobutan-2-yl)carbamoyl)benzo[b]thiophen-5-yl)difluoromethyl)phosphonic acid]
14 | 1000 to 10000 | 100 to 1000 | CC(C)(C)[C@H](NC(=O)c1cc2cc(C(F)(F)P(=O)(O)O)ccc2s1)C(=O)N1Cc2ccccc2C1C(=O)N1CCO[C@H](c2ccccc2)C1 (stereo partly drawn) [Compound 141, ((2-(((2S)-3,3-dimethyl-1-oxo-1-(1-((R)-2-phenylmorpholine-4-carbonyl)isoindolin-2-yl)butan-2-yl)carbamoyl)benzo[b]thiophen-5-yl)difluoromethyl)phosphonic acid]
15 | 1000 to 10000 | 100 to 1000 | CCC(CC)[C@H](NC(=O)c1cc2cc(C(F)(F)P(=O)(O)O)ccc2s1)C(=O)N1CCC[C@H]1C(=O)N1CCO[C@H](c2ccccc2)C1 [Compound 144, ((2-(((S)-3-ethyl-1-oxo-1-((S)-2-((R)-2-phenylmorpholine-4-carbonyl)pyrrolidin-1-yl)pentan-2-yl)carbamoyl)benzo[b]thiophen-5-yl)difluoromethyl)phosphonic acid]
16 | 1000 to 10000 | 100 to 1000 | CC[C@H](NC(=O)c1cc2cc(C(F)(F)P(=O)(O)O)ccc2s1)C(=O)N1CCC[C@H]1C(=O)N1CCO[C@H](c2ccccc2)C1 [Compound 146, (difluoro(2-(((S)-1-oxo-1-((S)-2-((R)-2-phenylmorpholine-4-carbonyl)pyrrolidin-1-yl)butan-2-yl)carbamoyl)benzo[b]thiophen-5-yl)methyl)phosphonic acid]
